# From ChEMBL document CHEMBL3217745, “Identification of false positives in HTS hits to lead: The application of Bayesian models in HTS triage to rapidly deliver a series of selective TRPV4 antagonists” (Medchemcomm, 2013)
# Legend:
# [1] = molecular target: T1, Transient receptor potential cation channel subfamily V member 4 (Homo sapiens, UniProt Q9HBA0); test: Antagonist activity at human TRPV4
# [2] = molecular target: T1, Transient receptor potential cation channel subfamily V member 4; test: Antagonist activity at human TRPV4 expressed in CHOK1 cells assessed as inhibition of PF-04674114/GSK1016790A-induced changes in intracellular calcium level measured for 5 mins by FLIPR assay; type: cell-based, CHO-K1
# [3] = molecular target: Transient receptor potential cation channel subfamily M member 8 (Homo sapiens, UniProt Q7Z2W7); test: Antagonist activity at human TRPM8
# [4] = molecular target: T2, Transient receptor potential cation channel subfamily V member 1 (Homo sapiens, UniProt Q8NER1); test: Agonist activity at human TRPV1
# [5] = molecular target: T2, Transient receptor potential cation channel subfamily V member 1; test: Antagonist activity at human TRPV1
# [6] = molecular target: T3, Transient receptor potential cation channel subfamily A member 1 (Homo sapiens, UniProt O75762); test: Agonist activity at human TRPA1
# [7] = molecular target: T3, Transient receptor potential cation channel subfamily A member 1; test: Antagonist activity at human TRPA1
# [8] = molecular target: T4, Transient receptor potential cation channel subfamily V member 4 (Rattus norvegicus, UniProt Q9ERZ8); test: Agonist activity at rat TRPV4 expressed in CHOK1 cells assessed as changes in intracellular calcium level measured for 5 mins by FLIPR assay; type: cell-based, CHO-K1
# [9] = molecular target: T4, Transient receptor potential cation channel subfamily V member 4; test: Antagonist activity at rat TRPV4 expressed in CHOK1 cells assessed as inhibition of PF-04674114/GSK1016790A-induced changes in intracellular calcium level measured for 5 mins by FLIPR assay; type: cell-based, CHO-K1
# [10] = molecular target: T1, Transient receptor potential cation channel subfamily V member 4; test: Agonist activity at human TRPV4 expressed in CHOK1 cells assessed as changes in intracellular calcium level measured for 5 mins by FLIPR assay; type: cell-based, CHO-K1
# [11] = Oral bioavailability in Sprague-Dawley rat at 2 mg/kg; type: ADME, organism-based; conditions: in vivo
# [12] = Tmax in Sprague-Dawley rat at 2 mg/kg, po; type: ADME, organism-based; parameters: dose 2 mg/kg, route oral; conditions: in vivo
# Rattus norvegicus [13] = test: fCmax in Sprague-Dawley rat at 2 mg/kg, po; type: ADME, organism-based; parameters: dose 2 mg/kg, route oral; conditions: in vivo
# [14] = Volume of distribution at steady state in Sprague-Dawley rat at 1 mg/kg, iv; type: ADME, organism-based; parameters: dose 1 mg/kg, route intravenous; conditions: in vivo, read-out: Vdss
# Rattus norvegicus [15] = test: Unbound clearance in Sprague-Dawley rat at 1 mg/kg, iv; type: ADME, organism-based; parameters: dose 1 mg/kg, route intravenous; conditions: in vivo
# [16] = Clearance in Sprague-Dawley rat at 1 mg/kg, iv; type: ADME, organism-based; parameters: dose 1 mg/kg, route intravenous; conditions: in vivo
# [17] = Half life in Sprague-Dawley rat at 1 mg/kg, iv; type: ADME, organism-based; parameters: dose 1 mg/kg, route intravenous; conditions: in vivo
# [18] = molecular target: Voltage-gated inwardly rectifying potassium channel KCNH2 (Homo sapiens, UniProt Q12809); test: Inhibition of dofetilide binding to human ERG
# [19] = Lipophilicity, log D of the compound; type: physicochemical; conditions: octanol/water
# CYP2D6 = CYP2D6 (Homo sapiens, UniProt P10635); test: Inhibition of CYP2D6 (unknown origin) at 3 uM relative to control; type: ADME
# CYP3A4 = CYP3A4 (Homo sapiens, UniProt P08684); test: Inhibition of CYP3A4 (unknown origin) at 3 uM relative to control; type: ADME
# CYP2C9 = CYP2C9 (Homo sapiens, UniProt P11712); test: Inhibition of CYP2C9 (unknown origin) at 3 uM relative to control; type: ADME
# CYP1A2 = molecular target: T5, CYP1A2 (Homo sapiens, UniProt P05177); test: Inhibition of CYP1A2 (unknown origin) at 3 uM relative to control; type: ADME
# T5 sequence (P05177 whole entry): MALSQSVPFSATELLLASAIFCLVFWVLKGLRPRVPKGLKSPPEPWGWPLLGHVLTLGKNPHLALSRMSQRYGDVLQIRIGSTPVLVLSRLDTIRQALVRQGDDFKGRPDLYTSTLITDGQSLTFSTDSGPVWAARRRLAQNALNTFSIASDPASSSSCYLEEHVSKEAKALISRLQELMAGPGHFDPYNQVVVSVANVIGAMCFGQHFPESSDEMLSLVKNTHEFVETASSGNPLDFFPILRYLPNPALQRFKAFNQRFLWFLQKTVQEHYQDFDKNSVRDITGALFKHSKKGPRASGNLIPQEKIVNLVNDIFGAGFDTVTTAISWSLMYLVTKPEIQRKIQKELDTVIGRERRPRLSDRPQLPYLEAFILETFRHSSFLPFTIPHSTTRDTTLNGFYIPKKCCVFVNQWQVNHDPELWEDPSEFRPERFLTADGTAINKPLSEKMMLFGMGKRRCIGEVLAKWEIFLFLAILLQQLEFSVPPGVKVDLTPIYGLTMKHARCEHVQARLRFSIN
# [20] = Clearance in rat liver microsomes; type: ADME; conditions: read-out: CLH
# [21] = Clearance in human liver microsomes; type: ADME; conditions: read-out: CLH
# T1 sequence (Q9HBA0 whole entry): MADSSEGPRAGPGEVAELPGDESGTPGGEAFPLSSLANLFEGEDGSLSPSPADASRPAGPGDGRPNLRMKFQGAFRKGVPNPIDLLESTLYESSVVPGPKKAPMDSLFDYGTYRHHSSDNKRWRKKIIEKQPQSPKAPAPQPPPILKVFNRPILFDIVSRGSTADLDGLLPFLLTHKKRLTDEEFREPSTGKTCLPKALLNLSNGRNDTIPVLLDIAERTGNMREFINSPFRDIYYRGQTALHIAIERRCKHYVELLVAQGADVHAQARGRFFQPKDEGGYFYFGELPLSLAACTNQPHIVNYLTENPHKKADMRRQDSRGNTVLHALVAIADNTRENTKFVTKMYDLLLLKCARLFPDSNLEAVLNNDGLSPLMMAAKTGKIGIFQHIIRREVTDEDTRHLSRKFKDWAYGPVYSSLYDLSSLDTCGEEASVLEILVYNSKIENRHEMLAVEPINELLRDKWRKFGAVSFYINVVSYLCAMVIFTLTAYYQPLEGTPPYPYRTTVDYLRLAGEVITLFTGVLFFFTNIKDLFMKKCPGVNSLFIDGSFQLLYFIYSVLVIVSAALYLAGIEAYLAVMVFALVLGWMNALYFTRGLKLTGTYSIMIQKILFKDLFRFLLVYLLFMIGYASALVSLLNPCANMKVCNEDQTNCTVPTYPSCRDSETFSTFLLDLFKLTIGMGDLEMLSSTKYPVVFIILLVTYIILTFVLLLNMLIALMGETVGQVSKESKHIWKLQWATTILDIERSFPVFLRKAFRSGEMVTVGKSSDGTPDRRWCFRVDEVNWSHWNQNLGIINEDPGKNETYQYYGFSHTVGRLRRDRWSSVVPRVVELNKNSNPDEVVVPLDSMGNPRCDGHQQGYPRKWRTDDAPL
# T3 sequence (O75762 whole entry): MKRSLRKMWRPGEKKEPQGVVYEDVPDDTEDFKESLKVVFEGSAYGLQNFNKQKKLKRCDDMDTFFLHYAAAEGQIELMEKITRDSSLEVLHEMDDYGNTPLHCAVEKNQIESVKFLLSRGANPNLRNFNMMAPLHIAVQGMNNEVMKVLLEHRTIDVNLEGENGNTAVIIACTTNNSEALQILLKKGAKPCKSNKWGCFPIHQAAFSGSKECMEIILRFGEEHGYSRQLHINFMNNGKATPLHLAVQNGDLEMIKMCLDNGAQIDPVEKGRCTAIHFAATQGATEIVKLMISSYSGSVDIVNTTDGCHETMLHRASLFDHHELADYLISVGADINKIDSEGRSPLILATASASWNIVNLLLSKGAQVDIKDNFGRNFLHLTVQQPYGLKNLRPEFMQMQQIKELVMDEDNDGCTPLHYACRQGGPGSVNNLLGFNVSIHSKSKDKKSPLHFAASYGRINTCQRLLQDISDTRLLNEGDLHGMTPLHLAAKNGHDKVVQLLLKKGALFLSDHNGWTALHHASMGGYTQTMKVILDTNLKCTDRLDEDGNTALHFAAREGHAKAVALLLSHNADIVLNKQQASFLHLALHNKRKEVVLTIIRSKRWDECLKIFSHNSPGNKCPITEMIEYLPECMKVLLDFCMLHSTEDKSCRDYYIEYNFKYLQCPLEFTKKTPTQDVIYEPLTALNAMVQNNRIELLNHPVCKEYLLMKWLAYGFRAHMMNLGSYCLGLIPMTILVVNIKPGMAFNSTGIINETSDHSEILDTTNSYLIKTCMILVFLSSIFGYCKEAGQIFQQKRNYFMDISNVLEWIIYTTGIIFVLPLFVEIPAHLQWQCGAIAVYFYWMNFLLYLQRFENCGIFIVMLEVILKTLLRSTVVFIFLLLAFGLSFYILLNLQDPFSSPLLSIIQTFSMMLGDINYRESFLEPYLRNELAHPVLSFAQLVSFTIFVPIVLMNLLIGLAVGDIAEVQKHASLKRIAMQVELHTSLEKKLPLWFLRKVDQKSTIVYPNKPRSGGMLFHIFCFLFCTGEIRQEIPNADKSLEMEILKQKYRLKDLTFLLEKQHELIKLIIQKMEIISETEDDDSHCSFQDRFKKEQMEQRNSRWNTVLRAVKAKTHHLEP
# T2 sequence (Q8NER1 whole entry): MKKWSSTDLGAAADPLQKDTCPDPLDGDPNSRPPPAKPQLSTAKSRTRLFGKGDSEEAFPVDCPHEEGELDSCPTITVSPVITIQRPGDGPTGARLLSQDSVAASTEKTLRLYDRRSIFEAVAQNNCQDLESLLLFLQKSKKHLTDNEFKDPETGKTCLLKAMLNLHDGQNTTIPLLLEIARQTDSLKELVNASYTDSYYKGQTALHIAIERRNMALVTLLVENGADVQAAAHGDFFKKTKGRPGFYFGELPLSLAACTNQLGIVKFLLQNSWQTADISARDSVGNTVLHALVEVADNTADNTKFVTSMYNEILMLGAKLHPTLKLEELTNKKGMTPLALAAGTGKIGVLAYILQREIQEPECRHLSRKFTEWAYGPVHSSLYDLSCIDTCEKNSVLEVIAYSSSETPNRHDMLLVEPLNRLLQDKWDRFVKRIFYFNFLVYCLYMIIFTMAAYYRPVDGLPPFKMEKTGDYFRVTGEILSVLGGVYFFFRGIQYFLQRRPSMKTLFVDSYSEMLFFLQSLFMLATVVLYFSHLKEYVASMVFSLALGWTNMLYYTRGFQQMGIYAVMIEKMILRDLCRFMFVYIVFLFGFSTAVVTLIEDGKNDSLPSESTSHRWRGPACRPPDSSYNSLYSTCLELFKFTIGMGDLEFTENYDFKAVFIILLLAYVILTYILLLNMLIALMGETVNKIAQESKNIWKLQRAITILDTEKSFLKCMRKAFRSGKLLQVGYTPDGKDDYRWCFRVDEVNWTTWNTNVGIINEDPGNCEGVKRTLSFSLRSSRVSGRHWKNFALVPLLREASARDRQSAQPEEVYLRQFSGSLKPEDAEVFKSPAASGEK
# T4 sequence (Q9ERZ8 whole entry): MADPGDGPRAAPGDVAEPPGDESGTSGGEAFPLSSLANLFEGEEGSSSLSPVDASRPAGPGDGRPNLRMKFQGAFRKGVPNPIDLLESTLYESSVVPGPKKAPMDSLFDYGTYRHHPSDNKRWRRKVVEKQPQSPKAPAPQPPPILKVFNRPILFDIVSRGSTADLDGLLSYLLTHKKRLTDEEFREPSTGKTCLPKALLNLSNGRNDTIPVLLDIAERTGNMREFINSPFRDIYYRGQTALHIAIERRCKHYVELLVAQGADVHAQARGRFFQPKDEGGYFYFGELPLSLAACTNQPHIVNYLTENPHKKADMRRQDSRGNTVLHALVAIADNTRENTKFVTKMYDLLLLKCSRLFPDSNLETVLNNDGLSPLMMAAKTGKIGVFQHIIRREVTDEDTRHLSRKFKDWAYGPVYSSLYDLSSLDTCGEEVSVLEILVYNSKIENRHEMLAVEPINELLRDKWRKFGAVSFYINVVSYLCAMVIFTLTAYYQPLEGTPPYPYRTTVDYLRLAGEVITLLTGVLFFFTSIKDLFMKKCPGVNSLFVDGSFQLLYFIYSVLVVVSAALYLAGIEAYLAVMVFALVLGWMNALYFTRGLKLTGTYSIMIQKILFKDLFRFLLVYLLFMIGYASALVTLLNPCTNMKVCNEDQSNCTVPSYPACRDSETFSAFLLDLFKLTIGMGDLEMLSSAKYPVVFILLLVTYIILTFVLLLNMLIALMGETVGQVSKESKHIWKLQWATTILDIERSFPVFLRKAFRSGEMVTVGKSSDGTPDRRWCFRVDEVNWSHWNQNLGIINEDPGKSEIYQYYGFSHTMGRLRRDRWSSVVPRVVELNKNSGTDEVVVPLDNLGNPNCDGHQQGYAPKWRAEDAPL
# Sequence of Transient receptor potential cation channel subfamily M member 8 (Q7Z2W7 whole entry): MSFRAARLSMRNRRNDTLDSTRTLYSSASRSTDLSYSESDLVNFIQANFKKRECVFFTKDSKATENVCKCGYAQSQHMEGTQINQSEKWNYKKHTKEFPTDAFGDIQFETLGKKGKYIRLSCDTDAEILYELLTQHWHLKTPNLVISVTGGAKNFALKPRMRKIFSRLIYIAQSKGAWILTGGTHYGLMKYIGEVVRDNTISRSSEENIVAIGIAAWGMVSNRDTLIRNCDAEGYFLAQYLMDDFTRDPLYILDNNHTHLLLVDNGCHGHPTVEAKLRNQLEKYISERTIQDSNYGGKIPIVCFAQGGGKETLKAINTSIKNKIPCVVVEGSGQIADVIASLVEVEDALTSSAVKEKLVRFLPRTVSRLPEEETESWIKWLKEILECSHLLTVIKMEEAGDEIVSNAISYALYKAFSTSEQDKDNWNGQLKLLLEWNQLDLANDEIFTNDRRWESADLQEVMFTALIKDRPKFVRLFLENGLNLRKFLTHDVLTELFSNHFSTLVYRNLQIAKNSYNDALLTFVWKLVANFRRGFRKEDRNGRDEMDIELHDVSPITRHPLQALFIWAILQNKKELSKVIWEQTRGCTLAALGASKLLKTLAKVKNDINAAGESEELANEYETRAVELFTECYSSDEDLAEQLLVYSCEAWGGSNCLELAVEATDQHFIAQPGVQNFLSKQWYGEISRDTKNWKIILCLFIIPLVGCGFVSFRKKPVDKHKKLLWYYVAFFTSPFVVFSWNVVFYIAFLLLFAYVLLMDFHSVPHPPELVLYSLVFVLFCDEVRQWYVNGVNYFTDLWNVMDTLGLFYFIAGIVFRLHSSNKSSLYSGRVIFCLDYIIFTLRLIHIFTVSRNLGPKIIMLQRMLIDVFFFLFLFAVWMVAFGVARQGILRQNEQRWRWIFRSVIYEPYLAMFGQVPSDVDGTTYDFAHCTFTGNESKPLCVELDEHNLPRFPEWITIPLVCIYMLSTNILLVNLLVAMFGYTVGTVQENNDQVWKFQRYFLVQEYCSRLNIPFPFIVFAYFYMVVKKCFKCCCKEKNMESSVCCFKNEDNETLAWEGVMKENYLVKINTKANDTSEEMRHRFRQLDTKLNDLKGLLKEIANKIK
compound,measurement,setting,value
O=S(=O)(c1ccc(Cl)cc1Cl)N1CCC(O)(CSc2ccncc2)CC1,IC50,[1],2200 nM
N#Cc1ccc(OCC2(O)CCN(S(=O)(=O)c3ccc(Cl)cc3Cl)CC2)cc1F,IC50,[2],12.9 nM
N#Cc1ccc(S(=O)(=O)N2CCC(O)(COc3ccc(C#N)c(F)c3)CC2)c(Cl)c1,IC50,[2],49.1 nM
N#Cc1ccc(OCC2(O)CCN(S(=O)(=O)c3ccc(Cl)cc3Cl)CC2)cc1,IC50,[3],4.8 µM
same,EC50,[4],> 20 µM
same,IC50,[5],> 3.9 µM
same,EC50,[6],> 12.5 µM
same,IC50,[7],> 12.5 µM
same,EC50,[8],> 1000 nM
same,IC50,[9],1150 nM
same,EC50,[10],> 1000 nM
same,IC50,[2],49.7 nM
N#Cc1ccc(S(=O)(=O)N2CCC(O)(COc3ccc(C#N)c(F)c3)CC2)c(C#N)c1,IC50,[2],50.5 nM
N#Cc1ccc(OCC2(O)CN(S(=O)(=O)c3ccc(Cl)cc3C#N)C2)cc1F,IC50,[2],3.4 nM
N#Cc1ccc(OCC2(O)CN(S(=O)(=O)c3ccc(Cl)cc3C#N)C2)cc1Cl,IC50,[2],3.6 nM
N#Cc1ccc(OCC2(O)CN(S(=O)(=O)c3ccc(Cl)cc3Cl)C2)cc1F,bioavailability,[11],73%
same,Tmax,[12],45 min
same,fCmax,Rattus norvegicus [13],16 nM
same,Vd,[14],4.3 L/kg
same,CL free,Rattus norvegicus [15],756 mL/min/kg
same,clearance,[16],23.5 mL/min/kg
same,half-life,[17],132 min
same,IC50,[18],9.67 µM
same,logD,[19],3.2
same,inhibition at 3 µM,CYP2D6,< 20%
same,inhibition at 3 µM,CYP3A4,< 20%
same,inhibition at 3 µM,CYP2C9,< 20%
same,inhibition at 3 µM,CYP1A2,< 20%
same,microsomal CLint,[20],87 µL/min/mg
same,microsomal CLint,[21],< 8.1 µL/min/mg
same,IC50,[3],9.58 µM
same,EC50,[4],> 20 µM
same,IC50,[5],> 16 µM
same,EC50,[6],> 12.5 µM
same,IC50,[7],> 12.5 µM
same,EC50,[8],> 1000 nM
same,IC50,[9],34.1 nM
same,EC50,[10],> 1000 nM
same,IC50,[2],3.8 nM
N#Cc1ccc(S(=O)(=O)N2CC(O)(COc3ccc(C#N)c(Cl)c3)C2)c(Cl)c1,IC50,[2],4 nM
